In patent US10023565B2, “N,N′ substituted piperidinamine compounds, and preparation method and usage thereof” (Institute of Pharmacology and Toxicology Academy of …, priority 2013, dated 2018):
Several values for one entry are separate records, joined by “and”; a condition that tells them apart may be missing. Equal entries are not always repeated. Where two headings read alike, the source gives them in different places.

Assay: Mice pharmacokinetic evaluation (LC-MS/MS of plasma)
Type: in vivo, ICR mice
Details: for Cmax: read-out: Cmax; for Plasma concentration of active compound: listed as Mol
Procedure: Mice pharmacokinetic evaluation of the compound of Example 36 according to the method described below
ICR mice, SPS grade, male, weighed […], license number SCXK (Beijing) 2012-0001, purchased from Beijing Vital River Laboratory Animal Technology Co. Ltd.
Chromatographic conditions: Analytical column: Capcell Pak MG, 5 μm particle size, 50×2.0 mm I.D. (Shiseido Co.), connected with C18 guard column, 4×3.0 mm I.D. (PhenomenexCo., USA), column temperature 25° C., mobile phase: acetonitrile −2 mM ammonium acetate (65:35, v/v), flow rate 0.3 ml/min, internal standard: loratadine.
MS conditions: Electrospray ionization source (Turbo Ionspray source), positive ion mode detection; spray voltage 4500 V; source temperature 400° C.; nebulizer gas (NEB) 8; curtain gas (CUR) 10; collision gas (CAD) 4; scanning mode: multiple reaction monitoring (MRM), ion reactions for quantitative analysis: m/z 354.4→m/z 154.1 (Mol, CE 43 V) and m/z 383→m/z 337 (internal standard loratadine, CE 32 V), scanning time 150 msec.
To 50 μl of plasma, were added 10 μl of internal standard solution (125 ng/ml aqueous solution of loratadine), and 500 μl of n-hexane-dichloromethane-isopropanol (100:50:5, v/v/v); they were uniformly mixed, followed by vortexing for 3 min, and centrifuging for 10 min (3000 rpm); the supernatant was taken and blow dried with air streamat 40° C.; the residue was dissolved with 150 μl […], and subjected to LC-MS/MS analysis.
30 ICR male mice were randomly divided into […], five mices each group, including Mol 10 mg/kg oral group and 1.0 mg/kg tail intravenous injection group. For oral group, before administration, the animals were fasted for 12 h, with free access to water; 0.08, 0.25, 0.5, 1, 2, 4, 6, 8, 12 and 24 h after intragastrical administration, 0.1 ml of orbital venous sinus blood was taken, placed in anticoagulation tube containing heparin sodium, and subjected to 3000 g centrifugation for 15 min; and then, the plasma was taken and stored in a −20° C. refrigerator. […]
Pharmacokinetic parameters were calculated using non-compartment model of Winnonlin® software (Version 5.2.1, USA). Cmax is the measured maximum plasma concentration, Tmax is time to peak plasma concentration after oral administration, t1/2 is drug terminal elimination halflife, MRT is average residence time of drug in vivo, the area AUC0-t under plasma concentration—time curve is calculated by trapezoidal method.
Bioavailability is calculated as follows: […]
AUC: Area (h*ng/ml) under the curve; D: dose (mg/kg)

[1] = male, ICR, mouse, plasma, po, 10 mg/kg, Po 10 mg/kg, Mean ± SD, n = 3
[2] = male, ICR, mouse, plasma, po, 10 mg/kg, Po 10 mg/kg, individual mice 1-3
[3] = male, ICR, mouse, plasma, po, 10 mg/kg, oral 10 mg/kg, Mean, read-out: Plasma concentration of active compound
[4] = male, ICR, mouse, plasma, po, 10 mg/kg, oral 10 mg/kg, individual mice 1-3, read-out: Plasma concentration of active compound

`CSc1nccc(N2CCC(N(C)Cc3ccc(C#N)cc3)CC2)n1` [Example 36, N-methyl-N-(4-cyanobenzyl)-N-[1-(2-methylthiopyrimidin-4-yl)piperidin-4-yl]amine] gave a concentration at 0.17 h (male, ICR, mouse, plasma, iv, 1 mg/kg, intravenous 1.0 mg/kg, Mean, read-out: Plasma concentration of active compound) of 62.8 ng/mL, a concentration at 0.17 h (male, ICR, mouse, plasma, iv, 1 mg/kg, intravenous 1.0 mg/kg, individual mice 4-6, read-out: Plasma concentration of active compound) of 79.6 ng/mL and a concentration at 0.5 h (male, ICR, mouse, plasma, iv, 1 mg/kg, intravenous 1.0 mg/kg, 0.5 h, Mean, read-out: Plasma concentration of active compound) of 31.5 ng/mL. It also gave a concentration at 1 h (male, ICR, mouse, plasma, iv, 1 mg/kg, intravenous 1.0 mg/kg, 1.0 h, Mean, read-out: Plasma concentration of active compound) of 7.02 ng/mL, a concentration at 2 h (male, ICR, mouse, plasma, iv, 1 mg/kg, intravenous 1.0 mg/kg, 2.0 h, Mean, read-out: Plasma concentration of active compound) of 1.77 ng/mL and a concentration at 4 h (male, ICR, mouse, plasma, iv, 1 mg/kg, intravenous 1.0 mg/kg, 4.0 h, Mean, read-out: Plasma concentration of active compound) of 2.26 ng/mL. It also gave a concentration at 4 h (male, ICR, mouse, plasma, iv, 1 mg/kg, intravenous 1.0 mg/kg, 4.0 h, individual mice 4-6, read-out: Plasma concentration of active compound) of 2.3 ng/mL, a concentration at 6 h (male, ICR, mouse, plasma, iv, 1 mg/kg, intravenous 1.0 mg/kg, 6.0 h, Mean, read-out: Plasma concentration of active compound) of 7.53 ng/mL and a concentration at 6 h (male, ICR, mouse, plasma, iv, 1 mg/kg, intravenous 1.0 mg/kg, 6.0 h, individual mice 4-6, read-out: Plasma concentration of active compound) of 7.53 ng/mL. For the same compound, the concentration at 8 h (male, ICR, mouse, plasma, iv, 1 mg/kg, intravenous 1.0 mg/kg, 8.0 h, Mean, read-out: Plasma concentration of active compound) was 0.84 ng/mL, the concentration at 8 h (male, ICR, mouse, plasma, iv, 1 mg/kg, intravenous 1.0 mg/kg, 8.0 h, individual mice 4-6, read-out: Plasma concentration of active compound) was 0.7 ng/mL and the bioavailability (male, ICR, mouse, plasma, oral, 10 mg/kg, Po 10 mg/kg vs IV 1.0 mg/kg, Mean ± SD, n = 3, read-out: F (absolute bioavailability)) was 55.5 ± 10.9%. For the same compound, the AUC(0-inf) [1] was 280 ± 55.8 ng·h/mL, the AUC(0-t) [1] was 275 ± 54.1 ng·h/mL and the half-life [1] was 2.72 ± 2.47 h. It also gave a Cmax [1] of 260 ± 63.2 ng/mL, an MRT last (male, ICR, mouse, plasma, po, 10 mg/kg, Po 10 mg/kg, Mean ± SD, n = 3, read-out: MRT0-t) of 1.58 ± 0.86 h and an MRT inf (male, ICR, mouse, plasma, po, 10 mg/kg, Po 10 mg/kg, Mean ± SD, n = 3, read-out: MRT0-∞) of 1.95 ± 1.42 h. The Tmax (male, ICR, mouse, plasma, po, 10 mg/kg, Po 10 mg/kg, Mean ± SD, n = 3, read-out: Tmax) was 0.44 ± 0.49 h, the AUC(0-inf) [2] was 216 ng·h/mL and the AUC(0-t) [2] was 214 ng·h/mL. The Cmax [2] was 197 ng/mL, the concentration at 0.08 h (male, ICR, mouse, plasma, po, 10 mg/kg, oral 10 mg/kg, 0.08 h, Mean, read-out: Plasma concentration of active compound) was 141 ng/mL and the concentration at 0.25 h (male, ICR, mouse, plasma, po, 10 mg/kg, oral 10 mg/kg, 0.25 h, Mean, read-out: Plasma concentration of active compound) was 203 ng/mL. It also gave a concentration at 0.5 h (male, ICR, mouse, plasma, po, 10 mg/kg, oral 10 mg/kg, 0.50 h, Mean, read-out: Plasma concentration of active compound) of 97.5 ng/mL, a concentration at 1 h (male, ICR, mouse, plasma, po, 10 mg/kg, oral 10 mg/kg, 1.0 h, Mean, read-out: Plasma concentration of active compound) of 147 ng/mL and a concentration at 2 h (male, ICR, mouse, plasma, po, 10 mg/kg, oral 10 mg/kg, 2.0 h, Mean, read-out: Plasma concentration of active compound) of 23.5 ng/mL. For the same compound, the concentration at 4 h (male, ICR, mouse, plasma, po, 10 mg/kg, oral 10 mg/kg, 4.0 h, Mean, read-out: Plasma concentration of active compound) was 7.75 ng/mL, the concentration at 6 h (male, ICR, mouse, plasma, po, 10 mg/kg, oral 10 mg/kg, 6.0 h, Mean, read-out: Plasma concentration of active compound) was 7.36 ng/mL and the concentration at 8 h (male, ICR, mouse, plasma, po, 10 mg/kg, oral 10 mg/kg, 8.0 h, Mean, read-out: Plasma concentration of active compound) was 2.71 ng/mL. It also gave a concentration at 12 h [3] of 0.5 ng/mL, a concentration at 12 h [4] of 0.5 ng/mL and a concentration at 24 h [3] of 1.32 ng/mL. The concentration at 24 h [4] was 1.32 ng/mL, the “Plasma concentration of active compound” value (oral 10 mg/kg, 0.08 h, individual mice 1-3, 10 mg/kg) was 196.99 ng/mL and 152.22 ng/mL and 72.70 ng/mL and the “Plasma concentration of active compound” value (oral 10 mg/kg, 0.25 h, individual mice 1-3, 10 mg/kg) was 126.87 ng/mL and 158.18 ng/mL and 323.37 ng/mL. The “Plasma concentration of active compound” value (oral 10 mg/kg, 0.50 h, individual mice 1-3, 10 mg/kg) was 41.24 ng/mL and 119.50 ng/mL and 131.86 ng/mL, the “Plasma concentration of active compound” value (oral 10 mg/kg, 1.0 h, individual mice 1-3, 10 mg/kg) was 107.54 ng/mL and 260.48 ng/mL and 71.98 ng/mL and the “Plasma concentration of active compound” value (oral 10 mg/kg, 2.0 h, individual mice 1-3, 10 mg/kg) was 33.99 ng/mL and 12.86 ng/mL and 23.69 ng/mL. For the same compound, the “Plasma concentration of active compound” value (oral 10 mg/kg, 4.0 h, individual mice 1-3, 10 mg/kg) was 7.47 ng/mL and 1.17 ng/mL and 14.60 ng/mL, the “Plasma concentration of active compound” value (oral 10 mg/kg, 6.0 h, individual mice 1-3, 10 mg/kg) was 1.28 ng/mL and 13.43 ng/mL and the “Plasma concentration of active compound” value (oral 10 mg/kg, 8.0 h, individual mice 1-3, 10 mg/kg) was 0.54 ng/mL and 4.88 ng/mL.
